The values that follow are results of earlier work, collected in US20110021470A1, “METHODS FOR TREATING CANCER COMPRISING THE ADMINISTRATION OF A VITAMIN D COMPOUND AND AN ADDITIONAL THERAPEUTIC AGENT, AND COMPOSITIONS CONTAINING THE SAME” (Cougar Biotechnology, Inc., priority 2006, published 2011).

For data set [1] the following is noted: in vivo.
Data set [2] concerns cell growth and differentiation.
For data set [3] the following is noted: oral lipid formulations (medium chain triglyceride, long chain triglyceride) compared with a formulation containing propylene glycol.
For data set [4] the following is noted: in vivo. The source holds these as a separate data set.

Regarding “1(S),3(R)-dihydroxy-20(R)-(5′-ethyl-5′-hydroxyhepta-1′(E),3′(E)-dien-1′-yl)-9,10-secopregna-5(Z),7(E),-10(19)-triene [Seocalcitol]”, in data set [1], the calcemic activity entry was “low”. Moreover, the “calcemic activity relative to 1α,25-dihydroxycholecalciferol” value in data set [1] (versus 1α,25-dihydroxycholecalciferol) is given as “approximately 50 % weaker”. Besides, in data set [2], the anti-proliferative activity entry was “strong”. Further, the “potency in regulation of cell growth and differentiation relative to 1α,25-dihydroxycholecalciferol” value in data set [2] (in vitro and in vivo, versus 1α,25-dihydroxycholecalciferol) was 50-200 times more potent. For the same substance, the bioavailability of seocalcitol result in data set [3] was “twofold higher”. For the same substance, in data set [4], the biological half-life result is reported as “suitable for systematic use”.
